# Test results taken from patent US20260123631A1, “NATURAL PORPHIN SALT AND USE THEREOF AS PLANT GROWTH REGULATOR AND PLANT IMMUNITY INDUCER” (NANJING BOSTEC BIOLOGICAL ENGINEERING CO., LTD, priority 2022, published 2026).
# Key:
# [1] = Water solubility of the prepared salts; format: physicochemical
# [2] = Stability of sample solutions in the dark/under light; format: physicochemical; details: under light 30,000 lux, salts in water, acidic reference in 30% to 50% ethanol
# How it was run: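 Salt in water, or acidic reference in 30–50% aqueous ethanol, at about 10 ppm; UV absorbance scanned 200–800 nm at 0, 1, 2, 3 h, stored at 25° C dark or under 30,000 lux light. Relative content = max-peak absorbance at each time divided by 0 h value (100%).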
# chlorophyllase = assay: In vitro chlorophyllase-inhibiting activity test; format: biochemical, mung bean; details: substrate chlorophyll 120 ppm, sample 0.3 ppm to 30.0 ppm
# Method: A chlorophyllase inhibition rate of a salt sample solution at each concentration was determined, and an IC50 value for a chlorophyllase inhibition activity of a salt sample was calculated.
# mung bean seedlings = assay: Inducing adventitious roots from hypocotyls of mung bean; format: in vivo; details: day 7
# Method: Test solution preparation: 8 mL of a commercially-available STANLEY universal hydroponic nutrient solution was taken and diluted with tap water to 3,200 mL (400-fold dilution) to produce a dilute nutrient solution. An appropriate amount of each of salt samples such as protoporphyrin disodium and potassium chlorhematin was weighed and prepared with the dilute nutrient solution into 0.010 ppm and 0.1 ppm sample test solutions, and 150 mL of each test solution was taken. 150 mL of the dilute nutrient solution was taken as a blank control. The test solutions and the control solution were placed in brown bottles, and the brown bottles were sealed with a black film. Mung bean seedlings with uniform growth and a seedling height of 7 cm to 8 cm were selected, and cut at 3 cm below a first true leaf node. 8 mung bean seedlings were inserted into each bottle (with roots removed) to make lower radicles soaked in a solution. Mung bean seedlings were treated at room temperature of 20° C. to 25° C. for 7 d in total, during which the solution was changed every 2 d. On day 2 to day 3 of the treatment, there was a significant difference. On day 7, the observation and determination were conducted. An average adventitious root number and an average total adventitious root length for each seedling were calculated, and results were shown in the following table: […]
# wheat = assay: Spraying on wheat to increase a yield; format: in vivo, wheat (Huaimai 35)
# Method: Crop: Huaimai 35. […] On Jun. 11, 2021, the harvesting was conducted throughout the field at a time.
# rice = assay: Germination of rice under salt stress; format: in vivo, rice (Nanjing 9108); details: sample 0.2 ppm; for Increase of root weight-promoting speed / Increase of root-shoot ratio / Increase of seedling weight-promoting rate: versus 4.5 g/L NaCl without sample
# Method: The selected full seeds of rice (variety: Nanjing 9108) were soaked in a sodium hypochlorite solution to allow disinfection for 2 min to 3 min, and then rinsed with clear water twice to three times. After the rinsing, 50 full seeds were selected and fully immersed in a prepared seed-soaking solution at 25° C. for 48 h. The soaked seeds were transferred to a plastic box with two paper towel layers tiled. The germination bed was moistened with a salt solution at a concentration corresponding to each treatment. The seeds were incubated in a 25° C. incubator with a light cycle of 12 h light/12 h dark and a humidity of 70%, during which the germination bed was always kept moist. The germination of rice seeds and the growth of seedlings were observed and recorded day by day. A germination rate of each treatment was recorded on […], and a number of normal seedlings was counted on day 14. 10 seeds were randomly selected from each treatment to measure a seedling length, a root length, a root number, a root weight, and a seedling weight. The germination energy was counted on day 5 and a germination rate was counted on day 14.
# rice seedlings = assay: Spraying on drought rice seedlings; format: in vivo, rice (Huiliangyou 473)
# Method: Method: Full rice seeds were selected, disinfected with 6% sodium hypochlorite for 2 min to 3 min, then rinsed with water, soaked in clear water at room temperature (30±1° C.) until the germination was started, and then transferred to seedling trays to raise seedlings. About 15 d later, rice seedlings with consistent growth were selected and transferred into buckets to allow further growth, with 3 holes per bucket and 2 plants per hole. A soil was a clay loam. Before transplanting, the soil was crushed, sieved, and thoroughly mixed. […] The water, fertilizers, pests, and diseases during the cultivation in the seedling trays were uniformly managed.
# Drought model: The transplanting was conducted on Aug. 18, 2020. The next day (August 19), the natural drought and sample-spraying treatment were started for rice seedlings. A soil moisture content was determined by the NY/T 52-1987 method.
# After the drought stress and sample-spraying were started at a tillering stage (September 19) of rice, a chlorophyll content (mg/g) in leaves was detected twice on day 3 and day 6 (September 21 and September 25), respectively.
# [3] = 3 mg/mu sprayed 3 times (0.2, 0.1, 0.1 ppm)
substance,measurement,setting,value
potassium iron chlorin [Example 20],solubility in water,[1],easily soluble
same,Relative content,[2]; 1 h,70.13%
same,Relative content,[2]; 2 h,62.66%
same,Relative content,[2]; 3 h,59.17%
same,IC50 for chlorophyllase inhibition activity,chlorophyllase,5.07 ppm
same,Adventitious root number,mung bean seedlings; 0.01 ppm,15.05 root/seedling
same,Total adventitious root length,mung bean seedlings; 0.01 ppm,24.56 cm/seedling
same,Adventitious root number,mung bean seedlings; 0.1 ppm,14.54 root/seedling
same,Total adventitious root length,mung bean seedlings; 0.1 ppm,23.55 cm/seedling
same,Actual yield per mu,wheat; [3],601.5 kg
same,Ear number per mu,wheat; [3],"31.9 10,000"
same,Grain number per ear,wheat; [3],35.0 grains/ear
same,Thousand-grain weight,wheat; [3],53.9 g
same,Yield increase rate per mu,"wheat; 3 mg/mu sprayed 3 times, versus clear water",7.60%
same,Average germination time,rice; NaCl 0 g/L,3.10 D
same,Dry root weight,rice; NaCl 0 g/L,0.0587 g/plant
same,Dry seedling weight,rice; NaCl 0 g/L,0.0543 g
same,First leaf length,rice; NaCl 0 g/L,3.84 cm
same,Germination energy,rice; NaCl 0 g/L,98.0%
same,Germination index,rice; NaCl 0 g/L,52.21%
same,Germination rate,rice; NaCl 0 g/L,98.0%
same,Root length,rice; NaCl 0 g/L,7.00 cm
same,Root number,rice; NaCl 0 g/L,8.67 roots/plant
same,Root weight-promoting speed,rice; NaCl 0 g/L,4.19 mg/day
same,Root-shoot ratio,rice; NaCl 0 g/L,1.082
same,Seedling height,rice; NaCl 0 g/L,6.83 cm
same,Seedling weight-promoting rate,rice; NaCl 0 g/L,3.88 mg/day
same,Vitality index,rice; NaCl 0 g/L,16.29%
same,Increase of root weight-promoting speed,rice; NaCl 0 g/L,53.04%
same,Increase of root-shoot ratio,rice; NaCl 0 g/L,25.31%
same,Increase of seedling weight-promoting rate,rice; NaCl 0 g/L,19.27%
same,Average germination time,rice; NaCl 2.5 g/L,3.28 D
same,Dry root weight,rice; NaCl 2.5 g/L,0.0473 g/plant
same,Dry seedling weight,rice; NaCl 2.5 g/L,0.0547 g
same,First leaf length,rice; NaCl 2.5 g/L,3.79 cm
same,Germination energy,rice; NaCl 2.5 g/L,96.7%
same,Germination index,rice; NaCl 2.5 g/L,49.99%
same,Germination rate,rice; NaCl 2.5 g/L,97.3%
same,Root length,rice; NaCl 2.5 g/L,4.86 cm
same,Root number,rice; NaCl 2.5 g/L,7.70 roots/plant
same,Root weight-promoting speed,rice; NaCl 2.5 g/L,3.38 mg/day
same,Root-shoot ratio,rice; NaCl 2.5 g/L,0.865
same,Seedling height,rice; NaCl 2.5 g/L,6.68 cm
same,Seedling weight-promoting rate,rice; NaCl 2.5 g/L,3.90 mg/day
same,Vitality index,rice; NaCl 2.5 g/L,14.38%
same,Increase of root weight-promoting speed,rice; NaCl 2.5 g/L,23.48%
same,Increase of root-shoot ratio,rice; NaCl 2.5 g/L,0.15%
same,Increase of seedling weight-promoting rate,rice; NaCl 2.5 g/L,20%
same,Average germination time,rice; NaCl 4.5 g/L,3.16 D
same,Dry root weight,rice; NaCl 4.5 g/L,0.0480 g/plant
same,Dry seedling weight,rice; NaCl 4.5 g/L,0.0580 g
same,First leaf length,rice; NaCl 4.5 g/L,3.88 cm
same,Germination energy,rice; NaCl 4.5 g/L,97.3%
same,Germination index,rice; NaCl 4.5 g/L,50.89%
same,Germination rate,rice; NaCl 4.5 g/L,97.3%
same,Root length,rice; NaCl 4.5 g/L,5.00 cm
same,Root number,rice; NaCl 4.5 g/L,7.17 roots/plant
same,Root weight-promoting speed,rice; NaCl 4.5 g/L,3.43 mg/day
same,Root-shoot ratio,rice; NaCl 4.5 g/L,0.836
same,Seedling height,rice; NaCl 4.5 g/L,6.71 cm
same,Seedling weight-promoting rate,rice; NaCl 4.5 g/L,4.14 mg/day
same,Vitality index,rice; NaCl 4.5 g/L,15.12%
same,Increase of root weight-promoting speed,rice; NaCl 4.5 g/L,25.22%
same,Increase of root-shoot ratio,rice; NaCl 4.5 g/L,−3.17%
same,Increase of seedling weight-promoting rate,rice; NaCl 4.5 g/L,27.32%
same,Change rate of chlorophyll content,"rice seedlings; 0.002 ppm, Day 3",9.49%
same,Chlorophyll content in rice leaves,"rice seedlings; 0.002 ppm, Day 3",3.69 mg/g
same,Change rate of chlorophyll content,"rice seedlings; 0.002 ppm, Day 6",42.96%
same,Chlorophyll content in rice leaves,"rice seedlings; 0.002 ppm, Day 6",3.86 mg/g
same,Change rate of chlorophyll content,"rice seedlings; 0.05 ppm, Day 3",29.67%
same,Chlorophyll content in rice leaves,"rice seedlings; 0.05 ppm, Day 3",4.37 mg/g
same,Change rate of chlorophyll content,"rice seedlings; 0.05 ppm, Day 6",63.70%
same,Chlorophyll content in rice leaves,"rice seedlings; 0.05 ppm, Day 6",4.42 mg/g
